Laboratory results as given in patent publication US11325896B2, “Antagonists of the muscarinic acetylcholine receptor M4” (Vanderbilt University, priority 2017, dated 2022).
pIC50: −log10 of the molar value.

Target: T1, human mAChR M4 (Homo sapiens, UniProt P08173)
T1 construct: expressed in transfected cells; host or cells: CHO-K1 (ATCC), stably co-expressing the chimeric G protein Gqi5
T1 sequence (P08173 1-479): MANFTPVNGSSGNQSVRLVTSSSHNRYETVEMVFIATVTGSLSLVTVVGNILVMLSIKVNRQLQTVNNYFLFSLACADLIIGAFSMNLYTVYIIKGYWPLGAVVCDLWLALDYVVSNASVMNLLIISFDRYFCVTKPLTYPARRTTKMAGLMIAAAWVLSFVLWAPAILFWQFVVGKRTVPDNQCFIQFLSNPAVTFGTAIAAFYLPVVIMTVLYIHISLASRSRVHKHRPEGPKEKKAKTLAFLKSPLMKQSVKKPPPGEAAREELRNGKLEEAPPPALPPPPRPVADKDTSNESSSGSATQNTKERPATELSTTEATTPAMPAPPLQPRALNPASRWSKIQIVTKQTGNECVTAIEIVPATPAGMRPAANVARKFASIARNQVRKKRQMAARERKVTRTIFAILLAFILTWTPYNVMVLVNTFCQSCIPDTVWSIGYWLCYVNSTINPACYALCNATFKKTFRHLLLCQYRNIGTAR
Assay: mAChR M4 cell-based functional assay (calcium flux, decrease of EC80 acetylcholine response)
Settings: for remaining activity at 30 µM: % ACh maximum at 30 μM, human M4, read-out: Emin; for pIC50: M4/Gqi5/CHO-K1 cells, decrease of response to EC80 acetylcholine
Description: Human or rat M4 cDNA, along with the chimeric G protein Gqi5, were transfected into Chinese hamster ovary (CHO-K1) cells purchased from the American Type Culture Collection using Lipofectamine2000. M4/Gqi5/CHO cells were grown in Ham's F-12 medium containing 10% heat-inactivated fetal bovine serum (FBS), 20 mM HEPES, 500 μg/mL G418 sulfate, and 200 μg/mL Hygromycin B.
For high throughput measurement of agonist-evoked increases in intracellular calcium, CHO-K1 cells stably expressing muscarinic receptors were plated in growth medium lacking G418 and hygromycin at 15,000 cells/20 μL/well in Greiner 384-well black-walled, tissue culture (TC)-treated, clear-bottom plates (VWR). Cells were incubated overnight at 37° C. and 5% CO2. The next day, cells were washed using an ELX 405 (BioTek) with assay buffer: the final volume was then aspirated to 20 μL. Next, 20 μL of a 2.3 μM stock of Fluo-4/acetoxymethyl ester (Invitrogen, Carlsbad, Calif.), prepared as a 2.3 mM stock in DMSO and mixed in a 1:1 ratio with 10% (w/v) Pluronic F-127 and diluted in assay buffer, was added to the wells and the cell plates were incubated for 50 min at 37° C. and 5% CO2. Dye was removed by washing with the ELX 405 and the final volume was aspirated to 20 μL. Compound master plates were formatted in a 10 point concentration-response curve (CRC) format (1:3 dilutions) in 100% DMSO with a starting concentration of 10 or 1 mM using a BRAVO liquid handler (Agilent). Test compound CRCs were then transferred to daughter plates (240 nL) using the Echo acoustic plate reformatter (Labcyte, Sunnyvale, Calif.) and then diluted into assay buffer (40 μL) to a 2× stock using a Thermo Fisher Combi (Thermo Fisher Scientific, Waltham, Mass.).
Calcium flux was measured using the Functional Drug Screening System (FDSS) 6000 or 7000 (Hamamatsu Corporation, Tokyo, Japan) as an increase in the fluorescent static ratio. Compounds were applied to cells (20 μL, 2×) using the automated system of the FDSS at 2 seconds into the protocol and the data were collected at 1 Hz. At 143 s, 10 μL of an EC20 concentration of the muscarinic receptor agonist acetylcholine was added (5×), followed by the addition of 12 μL of an EC80 concentration of acetylcholine at the 268 s time point (5×). Agonist activity was analyzed as a concentration-dependent increase in calcium mobilization upon compound addition. Positive allosteric modulator activity was analyzed as a concentration-dependent increase in the EC20 acetylcholine response. Antagonist activity was analyzed as a concentration-dependent decrease in the EC80 acetylcholine response; for the purposes of the tables herein, an IC50 (inhibitory concentration 50) was calculated as a concentration-dependent decrease of the response elicited by an EC80 concentration of acetylcholine. Concentration-response curves were generated using a four-parameter logistical equation in XLFit curve fitting software (IDBS, Bridgewater, N.J.) for Excel (Microsoft, Redmond, Wash.) or Prism (GraphPad Software, Inc., San Diego, Calif.) or the Dotmatics software platform (Dotmatics, Bishop's Stortford, UK).
Compounds were synthesized as described above. Activity (IC50 and Emin) was determined in the mAChR M4 cell-based functional assay as described above and the data are shown in Table 4. The compound numbers correspond to those used in Examples 1-4 and Tables 1-3.

Structure (SMILES)	remaining activity at 30 µM [%]	pIC50
Fc1ccc(Cl)c(-c2ccc(NC3CC4(C3)CN(CC3CCOCC3)C4)nn2)c1 [Compound 7, N-(6-(2-chloro-5-fluorophenyl)pyridazin-3-yl)-2-((tetrahydro-2H-pyran-4-yl)methyl)-2-azaspiro[3,3]heptan-6-amine]	7.8	5.64
Fc1ccc(Cl)c(-c2ccc(NC3CC4(C3)CN(CC3CCCCC3)C4)nn2)c1 [Compound 5, N-(6-(2-chloro-5-fluorophenyl)pyridazin-3-yl)-2-(cyclohexylmethyl)-2-azaspiro[3.3]heptan-6-amine]	3.1	6.68
Cc1nn(C)cc1-c1ccc(OCC2CC3(C2)CN(CC2CCCCC2)C3)nn1 [Compound 21, 2-(Cyclohexylmethyl)-6-(((6-(1,3-dimethyl-1H-pyrazol-4-yl)pyridazin-3-yl)oxy)methyl)-2-azaspiro[3.3]heptane]	8.6	5.63
Cc1nn(C)cc1-c1ccc(NC2CC3(C2)CN(CC2CCOCC2)C3)nn1 [Compound 2, N-(6-(1,3-dimethyl-1H-1-pyrazol-4-yl)pyridazin-3-yl)-2-((tetrahydro-2H-pyran-4-yl)methyl)-2-azaspiro[3.3]heptan-6-amine]	46.5	5.00
Cc1cccnc1CN1CC2(CC(COc3ccc(-c4cn(C)nc4C)nn3)C2)C1 [Compound 25, 6-(((6-(1,3-dimethyl-1H-pyrazol-4-yl)pyridazin-3-yl)oxy)methyl)-2-((3-methylpyridin-2-yl)methyl)-2-azaspiro[3.3]heptane]	16.5	5.38
Fc1ccc(Cl)c(-c2ccc(NCC3CC4(C3)CN(CC3CC5C=CC3C5)C4)nn2)c1 (centres unmarked) [Compound 14, N-((2-(bicyclo[2.2.1]hept-5-en-2-ylmethyl)-2-azaspiro[3.3]heptan-6-yl)methyl)-6-(2-chloro-5-fluorophenyl)pyridazin-3-amine]	2.6	7.23
Cc1nn(C)cc1-c1ccc(NCC2CC3(C2)CN(CCC(C)(C)C)C3)nn1 [Compound 15, 6-(1,3-dimethyl-1H-pyrazol-4-yl)-N-((2-(3,3-dimethylbutyl)-2-azaspiro[3.3]heptan-6-yl)methyl)pyridazin-3-amine]	7.5	5.83
CC(C)(C)CCN1CC2(C1)CC1(CC1CNc1ccc(Cl)nn1)C2 (centres unmarked) [Compound 20, 6-Chloro-N-((7-(3,3-dimethylbutyl)-7-azadispiro[2.1.3^5.1^3]nonan-1-yl)methyl)pyridazin-3-amine]	4.9	6.35
Fc1ccc(Cl)c(-c2ccc(NC3CC4(C3)CN(CC35CC6CC(CC(C6)C3)C5)C4)nn2)c1 [Compound 8, 2-(adamantan-1-ylmethyl)-N-(6-(2-chloro-5-fluorophenyl)pyridazin-3-yl)-2-azaspiro[3.3]heptan-6-amine]	3.8	6.82
Cc1nn(C)cc1-c1ccc(OCC2CC3(C2)CN(CC2CC4C=CC2C4)C3)nn1 (centres unmarked) [Compound 23, 2-(bicyclo[2.2.1]hept-5-en-2-ylmethyl)-6-(((6-(1,3-dimethyl-1H-pyrazol-4-yl)pyridazin-3-yl)oxy)methyl)-2-azaspiro[3.3]heptane]	3.7	6.17
Cc1nn(C)cc1-c1ccc(NC2CC3(C2)CN(CCC(C)(C)C)C3)nn1 [Compound 9, N-(6-(1,3-dimethyl-1H-pyrazol-4-yl)pyridazin-3-yl)-2-(3,3-dimethylbutyl)-2-azaspiro[3.3]heptan-6-amine]	12.4	5.54
Cc1nn(C)cc1-c1ccc(NCC2CC3(C2)CN(CC2CCCCC2)C3)nn1 [Compound 16, N-((2-(cyclohexylmethyl)-2-azaspiro[3.3]heptan-6-yl)methyl)-6-(1,3-dimethyl-1H-pyrazol-4-yl)pyridazin-3-amine]	13.5	5.38
Cc1nn(C)cc1-c1ccc(OCC2CC3(C2)CN(CCC(C)(C)C)C3)nn1 [Compound 22, 6-(((6-(1,3-dimethyl-1H-pyrazol-4-yl)pyridazin-3-yl)oxy)methyl)-2-(3,3-dimethylbutyl)-2-azaspiro[3.3]heptane]	4.6	5.86
CC(=O)Nc1ccc(-c2ccc(NCC3CC4(C3)CN(CCC(C)(C)C)C4)nn2)cc1 [Compound 17, N-(4-(6-(((2-(3,3-dimethylbutyl)-2-azaspiro[3.3]heptan-6-yl)methyl)amino)pyridazin-3-yl)phenyl)acetamide]	7.8	5.66
CC(=O)Nc1ccc(-c2ccc(NCC3CC4(C3)CN(CC3CC5C=CC3C5)C4)nn2)cc1 (centres unmarked) [Compound 18, N-(4-(6-(((2-(bicyclo[2.2.1]hept-5-en-2-ylmethyl)-2-azaspiro[3.3]heptan-6-yl)methyl)amino)pyridazin-3-yl)phenyl)acetamide]	8.1	5.81
CC(=O)Nc1ccc(-c2ccc(NCC3CC4(C3)CN(CC3CCCCC3)C4)nn2)cc1 [Compound 19, N-(4-(6-(((2-(cyclohexylmethyl)-2-azaspiro[3.3]heptan-6-yl)methyl)amino)pyridazin-3-yl)phenyl)acetamide]	20.5	5.09
Cc1nn(C)cc1-c1ccc(OCC2CC3(C2)CN(Cc2ccccc2)C3)nn1 [Compound 24, 2-benzyl-6-(((6-(1,3-dimethyl-1H-pyrazol-4-yl)pyridazin-3-yl)oxy)methyl)-2-azaspiro[3.3]heptane]	36.4	5.00
Cc1nn(C)cc1-c1ccc(NCC2CC3(C2)CN(CC2CC4C=CC2C4)C3)nn1 (centres unmarked) [Compound 12, N-((2-(bicyclo[2.2.1]hept-5-en-2-ylmethyl)-2-azaspiro[3.3]heptan-6-yl)methyl)-6-(1,3-dimethyl-1H-pyrazol-4-yl)pyridazin-3-amine]	3.6	6.15
Fc1ccc(Cl)c(-c2ccc(NC3CC4(C3)CN(CC3CCCOC3)C4)nn2)c1 (centres unmarked) [Compound 6, N-(6-(2-chloro-5-fluorophenyl)pyridazin-3-yl)-2-((tetrahydro-2H-pyran-3-yl)methyl)-2-azaspiro[3.3]heptan-6-amine]	5.4	5.61
Cc1nn(C)cc1-c1ccc(NCC2CC3(C2)CN(CC(C)C(C)(C)C)C3)nn1 (centres unmarked) [Compound 13, 6-(1,3-dimethyl-1H-pyrazol-4-yl)-N-((2-(2,3,3-trimethylbutyl)-2-azaspiro[3.3]heptan-6-yl)methyl)pyridazin-3-amine]	6.1	5.82
Fc1ccc(Cl)c(-c2ccc(NC3CC4(C3)CN(CC3CC5C=CC3C5)C4)nn2)c1 (centres unmarked) [Compound 3, 2-(bicyclo[2.2.1]hept-5-en-2-ylmethyl)-N-(6-(2-chloro-5-fluorophenyl)pyridazin-3-yl)-2-azaspiro[3.3]heptan-6-amine]	4	7.00
CC(C)(C)CCN1CC2(CC(Nc3ccc(-c4cc(F)ccc4Cl)nn3)C2)C1 [Compound 4, N-(6-(2-chloro-5-fluorophenyl)pyridazin-3-yl)-2-(3,3-dimethylbutyl)-2-azaspiro[3.3]heptan-6-amine]	2.8	6.80
